Test results published in US20110239322A1, “IN VITRO FLOWERING/SEED SET LEADING TO PARTIAL OR COMPLETE MALE STERILITY IN GRASSES” (THE PENN STATE RESEARCH FOUNDATION, priority 2010, published 2011).

Test system: shoot explant
Assay: in vitro flowering on flowering medium (MS medium with growth regulators)
Set-up: species or system grasses
Method: In a preferred embodiment, seeds are washed in running tap water with a drop of soap for 5 mins and sterilized with 95% ethyl alcohol for 2 min followed by a 15 minute treatment with 10% bleach and washed three times for 5 min intervals with sterile distilled water. Ten seeds are germinated in each petriplate with MS medium with […]. After germination on MS 2,4-D, for a period of time, such as 3-7 days in the dark at 24±2° C. The flowering medium preferably comprises a substituted phenylurea cytokinin analog, such as TDZ and a cytokinin such as BAP.
Cultures are incubated at 24±2° C. under a 16/8-hour […] photoperiod provided by cool-white fluorescent lights at a quantum flux density of 30 μmol s^−1 m^−2. Following a passage of time, typically within 2 weeks, callus induction occurs, having taken the first internode of the germinated seed (on MS 4 mg/L 2,4-D medium). After about two weeks, the callus is transferred to regeneration medium, to allow for shoot induction (MS, 0.5 mg/L BAP, 0.1 mg/L 2,4-D, 38 mg/L CuSO4). During this time (shoot regeneration), cultures are incubated with necessary dark photoperiodic conditions to promote growth and to mimic natural growing conditions. Additionally, over time it may be necessary to subculture the explants with fresh MS, BAP, 2,4-D, CuSO4. […]

Structure (SMILES): O=C(Nc1ccccc1)Nc1cnns1 [TDZ, 1-phenyl-3-(1,2,3-thiadiazol-5-yl)urea]
- flower production on shoot explant (TDZ 2.0 mg/L combined with BAP 1.0 mg/L in flowering medium): flowers are produced directly on a shoot explant
- flower production on shoots developed from callus (TDZ 1.0-2.0 mg/L without BAP): produces flowers on shoots developed from callus
